The source of these data is patent US20110263478A1, “SUR1 INHIBITORS FOR THERAPY” (priority 2008, published 2011).

The subject of data set [1] is rats with spinal cord injury (SCI). Put plainly: Rat cervical SCI model: histology, capillaries and lesion size. It counts as in vivo. Particulars: 7 d post-SCI. As to the method:
(§1) SCI injury model. This study was performed in accordance with the guidelines of the Institutional Animal Care and Use Committee. Adult female Long-Evans rats (275-350 gm) were anesthetized (Ketamine, 60 mg/kg plus Xylazine, 7.5 mg/kg, i.p.). The dura at C4-5 was exposed via a left hemilaminectomy. A hemi-cervical spinal cord contusion was created using a blunt force impactor (1.3-mm impactor head driven by a 10 gm weight dropped vertically 25 mm) (Soblo sky et al., 2001; Gensel et al., 2006). After SCI, animals were given 10 ml of glucose-free normal saline s.q. Rectal temperature was maintained at ˜37° C. using a servo-controlled warming blanket. Blood gases and serum glucose 10-15 min post-SCI were: pO2, 95±6 mm Hg; pCO2, 46±3 mm Hg; pH, 7.33±0.01; glucose 258±17 mg/dl in controls and pO2, 96±7 mm Hg; pCO2, 45±2 mm Hg; pH, 7.37±0.01; glucose 242±14 mg/dl in glibenclamide-treated animals.
(§2) Drug delivery. […] During the course of the project, slightly different formulations of drug were used, with the best results obtained using stock solutions made by placing 50 mg (or 25 mg) of drug into 10 ml DMSO, and infusion solutions made by placing 400 μl (or 800 μl) stock into 4.6 ml (or 4.2 ml) unbuffered saline (0.9% NaCl) and adjusting the pH to ˜8.5 using 0.1 N NaOH.
Lesion size. At 7 d post-SCI, cords were paraffin sectioned and stained with H&E. Lesion volumes were calculated from lesion areas measured on serial sections every 250 μm.
Immunohistochemistry. Cryosections were immunolabeled (Chen et al., 2003; Simard et al., 2006) using primary antibodies directed against SUR1 (Santa Cruz, C-16; 1:200; 1 h at RT, 48 h at 4° C.), SUR2 (Santa Cruz, H-80; 1:200; 1 h at RT, 48 h at 4° C.), GFAP (Sigma, C-9205; 1:500), and vimentin (Sigma, monoclonal CY3 conjugated; 1:100). Quantitative immunofluorescence was performed as described (Gerzanich et al., 2003).

The subject of data set [2] is SUR1. Put plainly: SCI with i.v. ODN: SUR1 immunolabeling of cord. The format is in vivo, rat. The text has this:
For studies with SCI, AS-ODN and Scr-ODN were used that were phosphorothioated at 4 distal bonds to protect against endogenous nucleases (Galderisi et al., 1999), with ODN's administered i.v. starting immediately after injury. […] With Scr-ODN, the necrotic void beneath the impact site was surrounded by an SUR1-positive shell of tissue, similar to observations in untreated animals (FIG. 1a). With AS-ODN, however, only the small volume of tissue immediately beneath the impact site was labeled for SUR1, and no necrotic void was evident (FIG. 5c).
(§3) For in vivo gene suppression of SUR1, we used oligodeoxynucleotides that were phosphorothioated at 4 distal bonds to protect against endogenous nucleases (35). Within a few min of SCI, mini-osmotic pumps (Alzet 2002, 0.5 μl/h; Durect Corporation) with jugular vein catheters were implanted that delivered either scrambled sequence ODN (Scr-ODN) (5′-[…]-3′; SEQ ID NO:1) or antisense ODN (AS-ODN) (5′-[…]-3′; SEQ ID NO:2) (Yokoshiki et al., 1999) in PBS at a rate of 1 mg/rat/24 h.
Immunohistochemistry. […] Quantitative immunofluorescence was performed as described (Gerzanich et al., 2003).

Data set [3] deals with SUR1. Put plainly: Gliotic capsule model with ODN infusion: SUR1 Western blot and astrocyte patch clamp. The format is in vivo, rat. On the procedure: To validate the antisense strategy, it was first implemented in the model that was originally used for the discovery of the NCCa-ATP channel, wherein a gelatin sponge is implanted into the parietal lobe to stimulate formation of a gliotic capsule (Chen and Simard, 2001). Here, animals were also fitted with mini-osmotic pumps that delivered oligodeoxynucleotides (ODN), either antisense (AS) or scrambled (Scr), continuously for 7 d into the injury site.
SUR1 knock-down in astrocytes was performed in triplicates by implanting rats with gelatin sponges in the parietal lobe to induce formation of a gliotic capsule containing reactive astrocytes that express the SUR1-regulated NCCa-ATP channel (Chen and Simard, 2001; Chen et al., 2003). At the same time, they were implanted with mini-osmotic pumps (Alzet, model 2002; 14-day pump) placed in the dorsal thoracolumbar region that contained ODN (711 μg/ml delivered @ 0.5 μl/h, yielding 1500 picomoles/day), with the delivery catheter placed directly into the site of the gelatin sponge implant in the brain. Animals were infused with Src-ODN or AS-ODN, as above but not phosphorothioated. After 10-14 days, the gelatin sponge plus encapsulating gliotic tissues were harvested and processed either for Western immunoblots or to obtain fresh reactive astrocytes for patch clamp electrophysiology. […]

The subject of data set [4] is rats with spinal cord injury (SCI). Put plainly: Rat cervical SCI model: hemorrhage / extravasated blood in cord. Particulars: 1 d post-SCI. The format is in vivo. As to the method:
Constant infusion of a low-dose of drug was used to achieve sustained occupancy of only high-affinity receptors.
as §1, §2, §3
Tissue blood. Rats were sacrificed at various times after SCI (n=5-11 rats/group), were perfused with heparinized saline to remove intravascular blood, and 5-mm segments of cord encompassing the lesion were homogenized and processed as described (Choudhri et al., 1997).

Data set [5] has the same test system. Put plainly: Rat cervical SCI model: neurobehavioral assessment (inclined plane, paw placement, rearing). The format is in vivo. On the procedure:
as §1, with “blanket.” for “blanket. Blood gases and serum glucose 10-15 min post-SCI were: pO2, 95±6 mm Hg; pCO2, 46±3 mm Hg; pH, 7.33±0.01; glucose 258±17 mg/dl in controls and pO2, 96±7 mm Hg; pCO2, 45±2 mm Hg; pH, 7.37±0.01; glucose 242±14 mg/dl in glibenclamide-treated animals.”
For in vivo gene suppression of SUR1, we used oligodeoxynucleotides that were phosphorothioated at 4 distal bonds to protect against endogenous nucleases (35).
Neurobehavioral assessment. All measurements were performed by blinded evaluators. Performance on the inclined plane was evaluated as described (Rivlin and Tator, 1977). To assess paw placement and vertical exploration (rearing) (Nikulina et al., 2004) animals were videotaped while in a translucent cylinder (19×20 cm). Rearing was quantified as the number of seconds spent with both front paws elevated above shoulder-height during a 3-min period of observation.

Data set [6] concerns the target SUR1-regulated NCCa-ATP channels (Rattus norvegicus, UniProt Q09429). Particulars: read-out: EC50, block of SUR1-regulated NCCa-ATP channel; cited from earlier work.
In data set [7] the test system is SUR-regulated channels (KATP / NCCa-ATP) in human aortic endothelial cells. As to the kind of experiment: Nystatin-perforated patch clamp, diazoxide activation in endothelial cells cultured under normoxic or hypoxic conditions. It counts as cell-based. Particulars: endothelial cells cultured under normoxic conditions. As to the method:
(§4) Patch clamp of endothelial cells was performed using a nystatin-perforated patch technique, to maintain the metabolic integrity of the cells. The identity of the activated channel can be assessed by measurement of the “reversal potential”, the potential at which an ion channel current reverses from inward to outward. With physiologically relevant concentrations of ions intracellularly and extracellularly (high potassium inside, high sodium outside), the reversal potential can unambiguously distinguish between a K^+ channel current such as KATP, which reverses negative to −50 mV and a non-selective cation channel current such as NCCa-ATP, which reverses near 0 mV.
(§5) Cell culture. Endothelial cell cultures from human brain microvessels, human aorta (ScienCell Research Laboratories), and murine brain microvessels (bEnd.3; ATCC), were grown at low density using media and supplements recommended by suppliers.

In data set [8] the target is T1, SUR-regulated channels (KATP / NCCa-ATP) in human aortic endothelial cells (Homo sapiens, UniProt Q09428).
T1 construct: host or cells: human aortic endothelial cells, cultured under normoxic or hypoxic conditions
T1 sequence (Q09428 whole entry): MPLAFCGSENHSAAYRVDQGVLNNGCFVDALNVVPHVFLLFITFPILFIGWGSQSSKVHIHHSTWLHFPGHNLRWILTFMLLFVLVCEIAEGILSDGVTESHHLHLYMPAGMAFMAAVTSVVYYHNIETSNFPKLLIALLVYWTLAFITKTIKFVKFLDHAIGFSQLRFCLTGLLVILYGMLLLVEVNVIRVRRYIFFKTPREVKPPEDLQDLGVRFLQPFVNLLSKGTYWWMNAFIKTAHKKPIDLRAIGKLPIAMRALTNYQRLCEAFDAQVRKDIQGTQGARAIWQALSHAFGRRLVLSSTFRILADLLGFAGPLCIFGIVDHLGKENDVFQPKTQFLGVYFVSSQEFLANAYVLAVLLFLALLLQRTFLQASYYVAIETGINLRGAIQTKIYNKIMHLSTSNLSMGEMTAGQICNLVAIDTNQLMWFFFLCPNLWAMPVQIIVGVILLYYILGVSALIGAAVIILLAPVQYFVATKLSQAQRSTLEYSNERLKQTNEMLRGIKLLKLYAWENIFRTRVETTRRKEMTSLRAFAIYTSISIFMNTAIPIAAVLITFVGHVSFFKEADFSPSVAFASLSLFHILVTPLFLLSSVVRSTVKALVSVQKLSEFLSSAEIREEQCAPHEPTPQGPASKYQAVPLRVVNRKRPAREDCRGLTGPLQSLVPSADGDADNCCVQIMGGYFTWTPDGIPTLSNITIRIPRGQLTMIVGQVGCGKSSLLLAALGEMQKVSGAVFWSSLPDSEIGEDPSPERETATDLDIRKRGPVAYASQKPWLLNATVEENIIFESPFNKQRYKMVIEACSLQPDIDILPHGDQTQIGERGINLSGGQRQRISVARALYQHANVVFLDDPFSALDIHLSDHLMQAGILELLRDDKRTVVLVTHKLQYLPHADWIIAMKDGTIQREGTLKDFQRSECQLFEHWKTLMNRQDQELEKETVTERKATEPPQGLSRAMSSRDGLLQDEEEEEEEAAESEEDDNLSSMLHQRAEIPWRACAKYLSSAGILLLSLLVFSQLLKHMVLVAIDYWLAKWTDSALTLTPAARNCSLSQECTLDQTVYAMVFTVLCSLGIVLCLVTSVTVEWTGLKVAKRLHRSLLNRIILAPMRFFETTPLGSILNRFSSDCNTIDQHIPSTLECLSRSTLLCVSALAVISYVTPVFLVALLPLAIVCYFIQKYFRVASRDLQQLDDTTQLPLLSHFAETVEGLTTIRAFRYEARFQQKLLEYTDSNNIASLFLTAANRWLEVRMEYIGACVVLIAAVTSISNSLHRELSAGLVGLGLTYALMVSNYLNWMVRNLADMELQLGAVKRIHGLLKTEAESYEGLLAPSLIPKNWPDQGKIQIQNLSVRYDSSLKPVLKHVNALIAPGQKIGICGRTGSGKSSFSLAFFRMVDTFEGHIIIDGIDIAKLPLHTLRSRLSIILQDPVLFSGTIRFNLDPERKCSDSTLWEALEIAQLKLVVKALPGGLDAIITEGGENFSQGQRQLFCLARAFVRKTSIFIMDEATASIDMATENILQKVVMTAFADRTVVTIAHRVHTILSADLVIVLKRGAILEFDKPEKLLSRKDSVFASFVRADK
The description is as above. It counts as cell-based. Particulars: most endothelial cells cultured under hypoxic conditions. As to the method: as §4, §5

The target in data set [9] is native and recombinant β-cell KATP channels (Homo sapiens, UniProt Q09428). Particulars: read-out: IC50, block of β-cell KATP channels; cited from earlier work.
Sequence of native and recombinant β-cell KATP channels (Q09428 whole entry, the tested form may be a part): as the sequence (Q09428 whole entry) above
Sequence of native and recombinant β-cell KATP channels (Q14654 whole entry partner, the tested form may be a part): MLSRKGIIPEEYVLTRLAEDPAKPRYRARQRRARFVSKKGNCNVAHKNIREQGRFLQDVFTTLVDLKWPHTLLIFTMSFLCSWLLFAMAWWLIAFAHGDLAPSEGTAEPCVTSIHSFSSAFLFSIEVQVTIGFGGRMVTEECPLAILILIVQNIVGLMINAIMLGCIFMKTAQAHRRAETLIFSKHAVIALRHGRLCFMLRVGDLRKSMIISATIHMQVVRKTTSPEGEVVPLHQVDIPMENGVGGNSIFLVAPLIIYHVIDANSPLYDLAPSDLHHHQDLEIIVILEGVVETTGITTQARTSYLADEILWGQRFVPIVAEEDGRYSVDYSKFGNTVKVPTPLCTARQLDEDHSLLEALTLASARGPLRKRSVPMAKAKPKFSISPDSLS
In data set [10] the test system is Abcc8 mRNA and SUR1 protein in bEnd.3 cells. Put plainly: TNFα exposure of bEnd.3 cells: RT-PCR and immunoblot for Abcc8 / SUR1. Particulars: 6-hr exposure, 20 ng/ml. It counts as cell-based, murine. On the procedure: Immunoblot. Lysates of inferomedial cortex, or of cultured bEnd.3 cells (ATCC, Monassas, Va.) that had been exposed to TNFα (20 ng/ml) for 6 hr, were prepared by homogenizing in RIPA lysis buffer. SUR1 was immunoisolated using a custom antibody raised against amino acids 598-965 (Protein Id, NP_037171) in rabbits by a commercial service (Covance, Denver, Pa.). This custom antibody was used to immunoisolate SUR1 using standard techniques, following which immunoisolated SUR1 was run on electrophoretic gels (NuPAGE® 4-12% Bis-Tris gels; Novex, Invitrogen, Carlsbad, Calif.). SUR1 was detected using the same custom antibody. Membranes were stripped and re-blotted for β-actin (1:5000; Sigma), which was used as a loading control. Detection was carried out using the ECL system (Amersham BioTBIences, Inc.) with routine imaging (Fuji LAS-3000) and quantification (Scion Image, Scion Corp, Frederick, Md.).
RT-PCR. bEnd.3 cells were exposed to TNFα (20 ng/ml) for 6 hr. RNA was extracted with TRIzol reagent (Invitrogen). RT-PCR was performed using Reverse Transcription System (Promega). The target transcript was reverse transcribed at RT for 10 min, then incubated at 42° C. for 15 min. The cDNA was amplified using 35 cycles under the following conditions: 94° C. for 30 sec; 57° C. for 45 sec; 72° C. for 45 sec. […] RT-PCR products (449 bp) were analyzed using 2.0% agarose/EtBr gel electrophoresis.

In data set [11] the test system is rAbcc8 promoter / NFκB consensus sequences. As to the kind of experiment: Luciferase reporter assay in HeLa cells. Particulars: 20 ng/ml. It counts as cell-based. As to the method: Luciferase reporter assay. TNFα-stimulated activity of the promoter region of Abcc8 was determined using luciferase reporter plasmids as previously described. HeLa cells were transfected with luciferase reporter plasmids containing the rAbcc8 promoter (−3853 to +125) or four tandem NFκB consensus sequences (Clonetech, Mountain View, Calif.) using Lipofectamine-2000 (Invitrogen). Co-transfection of pRL-CMV, Renilla luciferase expression plasmid served as a control for transfection efficiency. The luciferase activity of cell extracts was determined using the Dual Luciferase system from Promega.

[12] abbreviates: 1 d post-SCI, ODN i.v., vs Scr-ODN.

Sequence of SUR1-regulated NCCa-ATP channels (Q09429 whole entry): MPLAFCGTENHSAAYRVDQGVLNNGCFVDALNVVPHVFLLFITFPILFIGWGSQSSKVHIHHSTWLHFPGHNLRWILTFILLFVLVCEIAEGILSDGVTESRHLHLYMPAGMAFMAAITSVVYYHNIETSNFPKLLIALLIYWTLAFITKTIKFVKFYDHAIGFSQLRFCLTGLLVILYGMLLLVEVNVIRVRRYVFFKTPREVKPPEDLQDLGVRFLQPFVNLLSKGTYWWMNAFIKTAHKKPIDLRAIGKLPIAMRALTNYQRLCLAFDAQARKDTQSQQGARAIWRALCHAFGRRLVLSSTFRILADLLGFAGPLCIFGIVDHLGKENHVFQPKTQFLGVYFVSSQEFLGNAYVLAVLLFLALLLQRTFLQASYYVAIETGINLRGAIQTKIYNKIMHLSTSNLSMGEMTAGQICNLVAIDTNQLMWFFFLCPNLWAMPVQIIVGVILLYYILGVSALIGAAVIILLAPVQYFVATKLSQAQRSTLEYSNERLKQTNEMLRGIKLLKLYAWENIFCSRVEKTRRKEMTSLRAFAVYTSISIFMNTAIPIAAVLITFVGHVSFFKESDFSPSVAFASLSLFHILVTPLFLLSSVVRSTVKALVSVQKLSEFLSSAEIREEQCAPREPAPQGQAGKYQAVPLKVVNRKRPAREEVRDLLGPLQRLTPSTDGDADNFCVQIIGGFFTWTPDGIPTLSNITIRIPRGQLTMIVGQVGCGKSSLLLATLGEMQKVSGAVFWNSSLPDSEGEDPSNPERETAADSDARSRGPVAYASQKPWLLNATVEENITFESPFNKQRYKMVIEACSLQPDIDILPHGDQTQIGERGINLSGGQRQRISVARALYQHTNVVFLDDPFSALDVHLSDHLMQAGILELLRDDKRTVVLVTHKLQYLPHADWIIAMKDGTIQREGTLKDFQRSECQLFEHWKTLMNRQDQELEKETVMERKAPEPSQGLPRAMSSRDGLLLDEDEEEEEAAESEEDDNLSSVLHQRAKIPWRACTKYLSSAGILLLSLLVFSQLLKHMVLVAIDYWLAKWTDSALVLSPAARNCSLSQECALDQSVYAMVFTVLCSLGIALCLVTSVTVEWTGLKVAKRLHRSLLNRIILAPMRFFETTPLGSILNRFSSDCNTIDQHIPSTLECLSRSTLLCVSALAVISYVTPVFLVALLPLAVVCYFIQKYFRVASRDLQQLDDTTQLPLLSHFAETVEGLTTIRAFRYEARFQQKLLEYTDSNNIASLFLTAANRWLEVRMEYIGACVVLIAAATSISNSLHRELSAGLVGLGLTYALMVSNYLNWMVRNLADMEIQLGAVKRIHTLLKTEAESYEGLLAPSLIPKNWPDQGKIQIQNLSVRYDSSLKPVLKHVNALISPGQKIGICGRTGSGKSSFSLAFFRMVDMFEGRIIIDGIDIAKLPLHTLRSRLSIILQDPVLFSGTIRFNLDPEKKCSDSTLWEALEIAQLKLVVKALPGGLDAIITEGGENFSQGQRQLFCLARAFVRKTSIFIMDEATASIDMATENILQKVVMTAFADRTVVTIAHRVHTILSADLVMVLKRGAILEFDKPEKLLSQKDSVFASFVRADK
Sequence of SUR1-regulated NCCa-ATP channels (Q9ESQ5 whole entry partner): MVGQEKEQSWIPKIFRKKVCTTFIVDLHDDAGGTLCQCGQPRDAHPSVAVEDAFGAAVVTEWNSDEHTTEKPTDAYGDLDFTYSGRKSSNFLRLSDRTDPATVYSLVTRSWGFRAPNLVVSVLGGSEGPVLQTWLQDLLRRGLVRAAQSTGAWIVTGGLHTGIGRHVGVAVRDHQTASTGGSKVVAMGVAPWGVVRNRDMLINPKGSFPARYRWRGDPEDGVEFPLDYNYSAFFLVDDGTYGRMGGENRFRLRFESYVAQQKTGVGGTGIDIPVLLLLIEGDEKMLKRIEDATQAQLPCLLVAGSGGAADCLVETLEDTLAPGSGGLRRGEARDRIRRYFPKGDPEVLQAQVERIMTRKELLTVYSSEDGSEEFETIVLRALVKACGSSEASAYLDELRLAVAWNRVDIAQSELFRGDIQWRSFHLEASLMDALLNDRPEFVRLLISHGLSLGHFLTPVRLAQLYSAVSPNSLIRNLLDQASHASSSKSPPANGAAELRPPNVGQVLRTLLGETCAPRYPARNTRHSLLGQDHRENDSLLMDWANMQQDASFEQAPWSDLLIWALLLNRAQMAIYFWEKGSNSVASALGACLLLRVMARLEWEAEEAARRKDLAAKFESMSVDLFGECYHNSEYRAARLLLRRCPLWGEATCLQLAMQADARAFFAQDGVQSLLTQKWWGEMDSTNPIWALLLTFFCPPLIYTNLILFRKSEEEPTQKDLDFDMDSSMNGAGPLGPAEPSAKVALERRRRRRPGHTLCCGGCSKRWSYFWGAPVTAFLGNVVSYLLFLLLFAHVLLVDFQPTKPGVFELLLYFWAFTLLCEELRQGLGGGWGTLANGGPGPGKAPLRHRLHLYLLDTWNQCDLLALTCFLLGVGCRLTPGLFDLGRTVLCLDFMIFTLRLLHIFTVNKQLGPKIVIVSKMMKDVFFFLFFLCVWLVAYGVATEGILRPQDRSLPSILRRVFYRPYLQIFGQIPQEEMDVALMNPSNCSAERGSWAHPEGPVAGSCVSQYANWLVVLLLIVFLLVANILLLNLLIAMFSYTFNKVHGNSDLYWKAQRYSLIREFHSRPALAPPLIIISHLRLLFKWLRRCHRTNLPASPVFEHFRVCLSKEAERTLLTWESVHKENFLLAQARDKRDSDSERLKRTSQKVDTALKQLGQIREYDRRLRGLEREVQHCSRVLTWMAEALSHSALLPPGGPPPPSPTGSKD

With “5′-GGCCGAGTGGTTCTCGGT-3′ (DNA, backbone not given here; phosphorothioate at four distal bonds) [AS-ODN]”, in data set [1], the “lesion volume, reduction compared to controls” value is on record as 3 fold. Moreover, the “immunolabeling for SUR1 in cord” value in the data set on SUR1 [2] (6 h post-SCI, ODN i.v. 1 mg/rat/24 h, vs controls) is given as “significantly less immunolabeling for SUR1”. The “normal expression of SUR1 in dorsal horn cells” value in the data set on SUR1 [2] (post-SCI, ODN i.v.) is reported as “did not affect”. Further, the “SUR1 protein in gliotic capsule (Western blot)” value in the data set with SUR1 [3] (ODN infused into injury site, vs Scr-ODN) is reported as “significant reduction in SUR1 protein”. For the same molecule, in the data set with SUR1 [3] (vs Scr-ODN (rapidly depolarized)), the “depolarization of gliotic capsule astrocytes on ATP depletion by Na azide” value was “depolarized only slightly or not at all”. In data set [4] (ODN i.v., vs Scr-ODN), the “blood in cord homogenates” value is reported as “reduced blood in cord homogenates”. In addition, in data set [5] (setting [12]), the “performance on inclined plane” value was “significantly better performance” and the vertical exploration result was “significantly better performance”.
For `Nc1ncnc2c1ncn2[C@@H]1O[C@H](COP(=O)(O)OP(=O)(O)OP(=O)(O)O)[C@@H](O)[C@H]1O` [ATP], the EC50 in [6] was 790 nM.
`CC1=NS(=O)(=O)c2cc(Cl)ccc2N1` [diazoxide]: the “whole-cell current response to diazoxide” value is “either had no effect or, in half of the cells, activated an outwardly rectifying current that reversed at potentials more negative than −50 mV” in data set [7] and “activated an ohmic current that reversed near 0 mV” in data set [8].
Take `CCOc1cc(CC(=O)N[C@@H](CC(C)C)c2ccccc2N2CCCCC2)ccc1C(=O)O` [repaglinide]: the “lesion volume, reduction compared to controls” value in data set [1] is reported as 3 fold. Further, in data set [4] (vehicle 1.8±0.2, P<0.01), the “blood in cord homogenates” value was determined as 1.2 ± 0.1 µL. Further, the IC50 in [9] is 0.9 to 7 nM. In [5] (1 d post-SCI, 200 ng/h s.q.), the “vertical exploration (rearing), time during 3-min observation” value turned out to be 27 ± 6 s. For the same molecule, in data set [5] (post-SCI, vehicle 29±4, P=0.03), the “inclined plane, head down” value is on record as 47±3 degrees. In data set [5] (post-SCI, vehicle 40±4, P=0.01), the “inclined plane, head up” value is given as 62±2 degrees.
In the case of TNFα, the “Abcc8 mRNA and SUR1 protein” value in [10] is “both increased”. Besides, in data set [11], the “activity of rAbcc8 promoter, increase” value is listed as roughly 2 fold and the “luciferase activity driven by NFκB binding sites, stimulation” value is on record as roughly 2.3 fold.
